Measured values reported in patent US20260262643A1, “HERBICIDAL BENZOXAZINES” (FMC CORPORATION, priority 2022, published 2026).

Columns and labels:
kochia [1] = test: Test C preemergence; format: in vivo, Bassia scoparia; details: 0 to 100 scale (0 no effect, 100 complete control)
Method in brief: (§1)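 Test material, in non-phytotoxic solvent with surfactant, was sprayed on the soil directly after seeding (preemergence) or on young plants of 2–10 cm with one to two leaves (postemergence). Greenhouse, 10 days; 0–100 visual control scale.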

ragweed [2] = test: Test C preemergence; format: in vivo, Ambrosia artemisiifolia; details: 0 to 100 scale (0 no effect, 100 complete control)
Method in brief: as §1

oat, wild [3] = test: Test C preemergence; format: in vivo, Avena fatua; details: 0 to 100 scale (0 no effect, 100 complete control)
Method in brief: as §1

pigweed, palmer [4] = test: Test C preemergence; format: in vivo, Amaranthus palmeri; details: 0 to 100 scale (0 no effect, 100 complete control)
Method in brief: as §1

blackgrass [5] = test: Test C postemergence; format: in vivo, Alopecurus myosuroides; details: 10 days
Method in brief: as §1

sedge, umbrella = test: Test D flooded paddy test; format: in vivo, Cyperus difformis; details: 250 g ai/ha, applied to paddy water, visual rating after 13 to 14 days, scale 0 to 100 (0 no effect, 100 complete control)
Method in brief: (§2)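 Plants at the 2-leaf stage were grown in pots flooded to 3 cm, and compound was applied directly into the paddy water, with depth kept throughout. After 13–14 days in a greenhouse, injury was rated visually against untreated controls on a 0–100 scale (100 = complete control); a dash means not tested.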

ducksalad = test: Test D flooded paddy test; format: in vivo, Heteranthera limosa; details: 250 g ai/ha, applied to paddy water, visual rating after 13 to 14 days, scale 0 to 100 (0 no effect, 100 complete control)
Method in brief: as §2

green foxtail [6] = test: Test C postemergence; format: in vivo, Setaria viridis; details: 10 days
Method in brief: as §1

corn [7] = test: Test C preemergence; format: in vivo, Zea mays; details: 0 to 100 scale (0 no effect, 100 complete control)
Method in brief: as §1

horseweed = test: Test C postemergence; format: in vivo, Erigeron canadensis; details: 10 days
Method in brief: as §1

kochia [8] = test: Test C postemergence; format: in vivo, Bassia scoparia; details: 10 days
Method in brief: as §1

barnyardgrass [9] = test: Test C preemergence; format: in vivo, Echinochloa crusgalli; details: 0 to 100 scale (0 no effect, 100 complete control)
Method in brief: as §1

green foxtail [10] = test: Test C preemergence; format: in vivo, Setaria viridis; details: 0 to 100 scale (0 no effect, 100 complete control)
Method in brief: as §1

ryegrass, Italian [11] = test: Test C postemergence; format: in vivo, Lolium multiflorum; details: 10 days
Method in brief: as §1

pigweed, palmer [12] = test: Test C postemergence; format: in vivo, Amaranthus palmeri; details: 10 days
Method in brief: as §1

barnyardgrass [13] = test: Test C postemergence; format: in vivo, Echinochloa crusgalli; details: 10 days
Method in brief: as §1

galium = test: Test C postemergence; format: in vivo, Galium aparine; details: 10 days
Method in brief: as §1

ragweed [14] = test: Test C postemergence; format: in vivo, Ambrosia artemisiifolia; details: 10 days
Method in brief: as §1

rice = test: Test D flooded paddy test; format: in vivo, Oryza sativa; details: 250 g ai/ha, applied to paddy water, visual rating after 13 to 14 days, scale 0 to 100 (0 no effect, 100 complete control)
Method in brief: as §2

soybean [15] = test: Test C postemergence; format: in vivo, Glycine max; details: 10 days
Method in brief: as §1

oat, wild [16] = test: Test C postemergence; format: in vivo, Avena fatua; details: 10 days
Method in brief: as §1

blackgrass [17] = test: Test C preemergence; format: in vivo, Alopecurus myosuroides; details: 0 to 100 scale (0 no effect, 100 complete control)
Method in brief: as §1

barnyardgrass [18] = test: Test D flooded paddy test; format: in vivo, Echinochloa crus-galli; details: 250 g ai/ha, applied to paddy water, visual rating after 13 to 14 days, scale 0 to 100 (0 no effect, 100 complete control)
Method in brief: as §2

corn [19] = test: Test C postemergence; format: in vivo, Zea mays; details: 10 days
Method in brief: as §1

wheat [20] = test: Test C postemergence; format: in vivo, Triticum aestivum; details: 10 days
Method in brief: as §1

soybean [21] = test: Test C preemergence; format: in vivo, Glycine max; details: 0 to 100 scale (0 no effect, 100 complete control)
Method in brief: as §1

wheat [22] = test: Test C preemergence; format: in vivo, Triticum aestivum; details: 0 to 100 scale (0 no effect, 100 complete control)
Method in brief: as §1

ryegrass, Italian [23] = test: Test C preemergence; format: in vivo, Lolium multiflorum; details: 0 to 100 scale (0 no effect, 100 complete control)
Method in brief: as §1

[24] = Preemergence, 500 g ai/ha, visual rating after 10 days
[25] = Test C, preemergence, 125 g ai/ha
[26] = 125 g ai/ha, postemergence, 0 to 100 scale, 0 no effect, 100 complete control
[27] = Postemergence, 500 g ai/ha, visual 0 to 100 scale (0 no effect, 100 complete control)

## COc1ccc(-n2cnc(C(C)C)n2)cc1C(=O)N1C[C@H](C)Oc2c1cccc2C(F)(F)F [Compound 171]
Kochia [1]; [24]
  Plant response rating, Kochia: 90
Kochia [1]; [25]
  Kochia plant response rating: 90
Ragweed [2]; [24]
  Plant response rating, Ragweed: 90
Ragweed [2]; [25]
  Ragweed plant response rating: 60
oat, wild [3]; [24]
  Plant response rating, Oat, Wild: 80
oat, wild [3]; [25]
  Oat, Wild plant response rating: 70
pigweed, palmer [4]; [24]
  Plant response rating, Pigweed, Palmer: 100
pigweed, palmer [4]; [25]
  Pigweed, Palmer plant response rating: 100
Blackgrass [5]; [26]
  Plant response rating, Blackgrass: 30
Blackgrass [5]; [27]
  Plant response rating, Blackgrass: 80
sedge, umbrella
  Plant response rating, Sedge, Umbrella (Flood): 95
ducksalad
  Plant response rating, Ducksalad (Flood): 60
Green foxtail [6]; [26]
  Plant response rating, Foxtail, Green: 40
Green foxtail [6]; [27]
  Plant response rating, Foxtail, Green: 50
Corn [7]; [24]
  Plant response rating, Corn: 40
Corn [7]; [25]
  Corn plant response rating: 30
horseweed; [26]
  Plant response rating, Horseweed: 20
horseweed; [27]
  Plant response rating, Horseweed: 80
Kochia [8]; [26]
  Plant response rating, Kochia: 90
Kochia [8]; [27]
  Plant response rating, Kochia: 90
Barnyardgrass [9]; [24]
  Plant response rating, Barnyardgrass: 100
Barnyardgrass [9]; [25]
  Barnyardgrass plant response rating: 90
Green foxtail [10]; [24]
  Plant response rating, Foxtail, Green: 100
Green foxtail [10]; [25]
  Foxtail, Green plant response rating: 100
ryegrass, Italian [11]; [26]
  Plant response rating, Ryegrass, Italian: 60
ryegrass, Italian [11]; [27]
  Plant response rating, Ryegrass, Italian: 80
pigweed, palmer [12]; [26]
  Plant response rating, Pigweed, Palmer: 100
pigweed, palmer [12]; [27]
  Plant response rating, Pigweed, Palmer: 100
Barnyardgrass [13]; [26]
  Plant response rating, Barnyardgrass: 30
Barnyardgrass [13]; [27]
  Plant response rating, Barnyardgrass: 40
galium; [26]
  Plant response rating, Galium: 100
galium; [27]
  Plant response rating, Galium: 100
Ragweed [14]; [26]
  Plant response rating, Ragweed: 60
Ragweed [14]; [27]
  Plant response rating, Ragweed: 70
rice
  Plant response rating, Rice (Flood): 0
Soybean [15]; [26]
  Plant response rating, Soybean: 100
Soybean [15]; [27]
  Plant response rating, Soybean: 100
oat, wild [16]; [26]
  Plant response rating, Oat, Wild: 10
oat, wild [16]; [27]
  Plant response rating, Oat, Wild: 50
Blackgrass [17]; [24]
  Plant response rating, Blackgrass: 70
Blackgrass [17]; [25]
  Blackgrass plant response rating: 70
Barnyardgrass [18]
  Plant response rating, Barnyardgrass (Flood): 0
Corn [19]; [26]
  Plant response rating, Corn: 20
Corn [19]; [27]
  Plant response rating, Corn: 20
Wheat [20]; [26]
  Plant response rating, Wheat: 10
Wheat [20]; [27]
  Plant response rating, Wheat: 40
Soybean [21]; [24]
  Plant response rating, Soybean: 100
Soybean [21]; [25]
  Soybean plant response rating: 60
Wheat [22]; [24]
  Plant response rating, Wheat: 90
Wheat [22]; [25]
  Wheat plant response rating: 40
ryegrass, Italian [23]; [24]
  Plant response rating, Ryegrass, Italian: 90
ryegrass, Italian [23]; [25]
  Ryegrass, Italian plant response rating: 50
